Laboratory results from patent publication US20260159512A1, “BCAT2 INHIBITORS” (AGIOS PHARMACEUTICALS, INC., priority 2021, published 2026).
“And” between values parts separate entries of the source, which are not always exact repeats. Identical values can stand only once.

Columns and labels:
Conditions in all cases: average where tested multiple times
[1] = target: T1, hBCAT1 (Homo sapiens, UniProt P54687); experiment: BCAT1 in vitro enzyme inhibition assay (resazurin/diaphorase-coupled fluorescence); format: biochemical
T1 sequence (P54687 1-386): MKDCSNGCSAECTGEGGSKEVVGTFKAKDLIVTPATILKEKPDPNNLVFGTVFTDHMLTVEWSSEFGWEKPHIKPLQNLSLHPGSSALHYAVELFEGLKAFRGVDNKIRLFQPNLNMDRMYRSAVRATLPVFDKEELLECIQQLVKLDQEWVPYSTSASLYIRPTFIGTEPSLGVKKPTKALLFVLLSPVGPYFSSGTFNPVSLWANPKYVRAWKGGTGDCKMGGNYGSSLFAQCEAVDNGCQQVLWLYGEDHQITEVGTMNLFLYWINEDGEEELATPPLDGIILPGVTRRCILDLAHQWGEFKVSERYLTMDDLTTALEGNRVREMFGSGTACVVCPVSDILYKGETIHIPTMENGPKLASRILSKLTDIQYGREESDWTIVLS
Procedure, shortened: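 Human BCAT1 activity read by resazurin/diaphorase-coupled fluorescence. Compounds added from 50× DMSO stocks at 1:50, giving 10-point 3-fold titrations from 100 μM top final concentration. Run in technical duplicate; repeat tests averaged.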

[2] = target: T2, BCAT2 (Homo sapiens, UniProt O15382); experiment: BCAT2 in vitro cell inhibition using engineered A549 cells (KMV cell assay, 13C6-KMV by LC-MS/MS); format: cell-based; set-up: The result was an engineered A549 cell line that expressed endogenous BCAT2; endogenous in cells; host or cells: A549 cells with MUT and BCAT1 knocked out by CRISPR/CAS9; key to BCAT2 Cell Inhibition: A: less than or equal to 0.100 μM; B: greater than 0.100 and less than or equal to 0.500 μM; C: greater than 0.500 and less than or equal to 1.000 μM; d: greater than 1.000 μM; E: no fit
T2 sequence (O15382 28-392): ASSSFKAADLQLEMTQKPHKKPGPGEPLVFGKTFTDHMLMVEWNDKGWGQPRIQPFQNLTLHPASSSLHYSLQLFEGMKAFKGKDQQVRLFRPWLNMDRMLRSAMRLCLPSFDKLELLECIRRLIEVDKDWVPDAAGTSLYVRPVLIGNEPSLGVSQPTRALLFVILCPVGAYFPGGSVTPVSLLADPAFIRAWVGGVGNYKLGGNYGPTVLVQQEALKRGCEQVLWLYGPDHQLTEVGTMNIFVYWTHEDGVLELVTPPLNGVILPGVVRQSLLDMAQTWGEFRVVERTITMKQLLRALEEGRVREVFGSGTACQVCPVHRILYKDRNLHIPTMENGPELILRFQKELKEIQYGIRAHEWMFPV

[3] = target: T2, BCAT2; experiment: BCAT2 in vitro enzyme inhibition assay (resazurin/diaphorase-coupled fluorescence); format: biochemical
Procedure, shortened: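 Coupled fluorescence readout: glutamate formed from L-leucine/α-ketoglutarate transamination drives GDH/NAD/diaphorase reduction of resazurin (Ex 540/Em 590). Human BCAT2 was first exposed 1 h at room temperature to compound, top final 100 μM in 3-fold, 10-point series; substrate reaction ran 1 h before SDS quench, in technical duplicate with DMSO max and enzyme-free min controls.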

IC50 [1] [nM]	IC50 [2]	IC50 [3] [nM]	BCAT2 Cell Inhibition [2]	SMILES
> 5000	100 to 500 nM	≤ 100		O=C(N[C@H]1CCC[C@@H](n2c(Oc3ccccc3)nc3cnc(-n4nccn4)cc32)C1)c1ccc(Br)s1 [Example 63, 5-bromo-N-((1S,3R)-3-(2-phenoxy-6-(2H-1,2,3-triazol-2-yl)-1H-imidazo[4,5-c]pyridin-1-yl)cyclohexyl)thiophene-2-carboxamide]
< 500	100 to 500 nM	≤ 100		CC(=O)N1CC(NC(=O)c2ccc(Cl)s2)CC(n2c(CC(C)C)nc3cnc(-n4nccn4)cc32)C1 (stereo not drawn) [Example 131, N-(1-acetyl-5-(2-isobutyl-6-(2H-1,2,3-triazol-2-yl)-1H-imidazo[4,5-c]pyridin-1-yl)piperidin-3-yl)-5-chlorothiophene-2-carboxamide]
500 to 1000	100 to 500 nM	≤ 100		CC(C)Cc1nc2cnc(-n3ncc(C(C)O)n3)cc2n1[C@@H]1CCC[C@H](NC(=O)c2ncc(Cl)s2)C1 (stereo partly drawn) [Example 350, 5-chloro-N-((1S,3R)-3-(6-(4-(1-hydroxyethyl)-2H-1,2,3-triazol-2-yl)-2-isobutyl-1H-imidazo[4,5-c]pyridin-1-yl)cyclohexyl)thiazole-2-carboxamide]
1000 to 5000		> 1000	E	CC(C)Cc1nc2cnc(-c3ncccn3)cc2n1[C@@H]1C[C@@H](O)C[C@H](NC(=O)c2ncc(Cl)s2)C1 (stereo in doubt) [Example 397, 5-chloro-N-((1R,3S,5S)-3-hydroxy-5-(2-isobutyl-6-(pyrimidin-2-yl)-1H-imidazo[4,5-c]pyridin-1-yl)cyclohexyl)thiazole-2-carboxamide]
> 5000		> 1000	E	Cc1noc(C)c1-c1nc2cnc(-n3ccnn3)cc2n1[C@@H]1CCC[C@H](NC(=O)c2ncc(C(F)F)s2)C1 [Example 48, 5-(difluoromethyl)-N-((1S,3R)-3-(2-(3,5-dimethylisoxazol-4-yl)-6-(1H-1,2,3-triazol-1-yl)-1H-imidazo[4,5-c]pyridin-1-yl)cyclohexyl)thiazole-2-carboxamide]
500 to 1000	≤ 100 nM and 100 to 500 nM	≤ 100		O=C(N[C@H]1CCC[C@@H](n2c(-c3ccccn3)nc3cnc(-n4cncn4)cc32)C1)c1ccc(Br)s1 [Example 9, 5-bromo-N-((1S,3R)-3-(2-(pyridin-2-yl)-6-(1H-1,2,4-triazol-1-yl)-1H-imidazo[4,5-c]pyridin-1-yl)cyclohexyl)thiophene-2-carboxamide]
< 500	100 to 500 nM	≤ 100		CC(C)Cc1nc2cnc(-c3ccccn3)cc2n1[C@@H]1CCC[C@H](NC(=O)c2ncc(Cl)s2)C1 [Example 303, 5-chloro-N-((1S,3R)-3-(2-isobutyl-6-(pyridin-2-yl)-1H-imidazo[4,5-c]pyridin-1-yl)cyclohexyl)thiazole-2-carboxamide]
< 500	100 to 500 nM	≤ 100		COc1cc2c(cn1)nc(-c1ccccc1F)n2[C@@H]1C[C@@H](O)C[C@H](NC(=O)c2ncc(Cl)s2)C1 [Example 278, 5-chloro-N-((1R,3S,5S)-3-(2-(2-fluorophenyl)-6-methoxy-1H-imidazo[4,5-c]pyridin-1-yl)-5-hydroxycyclohexyl)thiazole-2-carboxamide]
< 500	≤ 100 nM	≤ 100		O=C(N[C@H]1CCC[C@@H](n2c(-c3ccccc3F)nc3cnc(-c4ccn[nH]4)cc32)[C@@H]1O)c1ncc(Cl)s1 [Example 240, 5-chloro-N-((1S,2R,3R)-3-(2-(2-fluorophenyl)-6-(1H-pyrazol-5-yl)-1H-imidazo[4,5-c]pyridin-1-yl)-2-hydroxycyclohexyl)thiazole-2-carboxamide]
< 500	≤ 100 nM	≤ 100		O=C(N[C@H]1C[C@H](O)C[C@@H](n2c(-c3ccccc3F)nc3cnc(F)cc32)C1)c1ncc(Cl)s1 [Example 276, 5-chloro-N-((1R,3S,5S)-3-(6-fluoro-2-(2-fluorophenyl)-1H-imidazo[4,5-c]pyridin-1-yl)-5-hydroxycyclohexyl)thiazole-2-carboxamide]
1000 to 5000	> 1000 nM	≤ 100		CNc1nccc(-c2cc3c(cn2)nc(CC(C)C)n3[C@@H]2CCC[C@H](NC(=O)c3ncc(Cl)s3)C2)n1 [Example 316, 5-chloro-N-((1S,3R)-3-(2-isobutyl-6-(2-(methylamino)pyrimidin-4-yl)-1H-imidazo[4,5-c]pyridin-1-yl)cyclohexyl)thiazole-2-carboxamide]
500 to 1000	100 to 500 nM	≤ 100		O=C(N[C@H]1CCC[C@@H](n2c(COC(F)(F)F)nc3cnc(-n4nccn4)cc32)C1)c1ncc(Cl)s1 [Example 315, N-((1S,3R)-3-(6-(2H-1,2,3-triazol-2-yl)-2-((trifluoromethoxy)methyl)-1H-imidazo[4,5-c]pyridin-1-yl)cyclohexyl)-5-chlorothiazole-2-carboxamide]
< 500	≤ 100 nM	≤ 100		O=C(N[C@H]1CCC[C@@H](n2c(-c3ccccc3F)nc3cnc(-c4nc[nH]n4)cc32)[C@@H]1O)c1ncc(Cl)s1 [Example 400, 5-chloro-N-((1S,2R,3R)-3-(2-(2-fluorophenyl)-6-(1H-1,2,4-triazol-3-yl)-1H-imidazo[4,5-c]pyridin-1-yl)-2-hydroxycyclohexyl)thiazole-2-carboxamide]
< 500	100 to 500 nM	≤ 100		O=C(NC1CCCCC(n2c(-c3c(O)cccc3F)nc3cnc(-c4nc[nH]n4)cc32)C1O)c1ccc(Cl)s1 (stereo not drawn) [Example 403, 5-chloro-N-(3-(2-(2-fluoro-6-hydroxyphenyl)-6-(1H-1,2,4-triazol-3-yl)-1H-imidazo[4,5-c]pyridin-1-yl)-2-hydroxycycloheptyl)thiophene-2-carboxamide]
< 500	≤ 100 nM	≤ 100		O=C(N[C@H]1CCC[C@@H](n2c(-c3ccccc3F)nc3cnc(-c4ncco4)cc32)[C@@H]1O)c1ncc(Cl)s1 [Example 248, 5-chloro-N-((1S,2R,3R)-3-(2-(2-fluorophenyl)-6-(oxazol-2-yl)-1H-imidazo[4,5-c]pyridin-1-yl)-2-hydroxycyclohexyl)thiazole-2-carboxamide]
1000 to 5000	500 to 1000 nM	≤ 100		CO[C@@H]1[C@@H](NC(=O)c2ncc(Cl)s2)CCC[C@H]1n1c(-c2ccccc2F)nc2cnc(-c3nc[nH]n3)cc21 [Example 234, 5-chloro-N-((1S,2R,3R)-3-(2-(2-fluorophenyl)-6-(1H-1,2,4-triazol-3-yl)-1H-imidazo[4,5-c]pyridin-1-yl)-2-methoxycyclohexyl)thiazole-2-carboxamide]
500 to 1000	100 to 500 nM	≤ 100		C#Cc1cnc(C(=O)N[C@H]2CCC[C@@H](n3c(-c4ncccc4F)nc4cnc(-n5cncn5)cc43)C2)s1 [Example 29, 5-ethynyl-N-((1S,3R)-3-(2-(3-fluoropyridin-2-yl)-6-(1H-1,2,4-triazol-1-yl)-1H-imidazo[4,5-c]pyridin-1-yl)cyclohexyl)thiazole-2-carboxamide]
< 500	≤ 100 nM	≤ 100		O=C(N[C@H]1CCC[C@@H](n2c(-c3ccccc3F)nc3cnc(-c4nc[nH]n4)cc32)C1)c1ncc(Cl)s1 [Example 83, 5-chloro-N-((1S,3R)-3-(2-(2-fluorophenyl)-6-(1H-1,2,4-triazol-3-yl)-1H-imidazo[4,5-c]pyridin-1-yl)cyclohexyl)thiazole-2-carboxamide]
< 500	100 to 500 nM	≤ 100		CC(C)Cc1nc2cnc(-c3cscn3)cc2n1[C@@H]1CCC[C@H](NC(=O)c2ncc(Cl)s2)C1 [Example 159, 5-chloro-N-((1S,3R)-3-(2-isobutyl-6-(thiazol-4-yl)-1H-imidazo[4,5-c]pyridin-1-yl)cyclohexyl)thiazole-2-carboxamide]
